Measurements published in patent US20260285897A1, “Neurosteroids and Prodrugs Thereof” (Emory University, priority 2023, published 2026).

What was measured:
GABAA α1β2γ2 = GABAA α1β2γ2 (Homo sapiens, UniProt P14867+P47870); assay: GABAA electrophysiology, PAM mode, SyncroPatch automated patch clamp; assay type: cell-based; details: for Emax: read-out: GABAA α1β2γ2 Maximum Potentiation
Description: (§1) The SyncroPatch assay is performed at room temperature. A fast application protocol is used, in which the ligand is rapidly applied and then removed from the cell. To test for PAM mode, the agonist (GABA EC20) is applied three times as a control and to show reproducibility, followed by a minimum 2-minute pre-incubation of client compound and then re-application of agonist (GABA EC20) in the presence of client compound. Finally, a saturating concentration of agonist is applied. A steady-state voltage pulse at −80 mV is applied throughout the assay. Compounds are prepared as 10 mM DMSO stocks.
(§2) Automated patch clamp-recordings are performed using the SyncroPatch 384i. The voltage protocol generation and data collection are performed with Patch Controller 384 V2.2.1 and Data Controller V2.3.0. The PAM activity is calculated using the following equation, [(Icomp/Ireference)−1], where Icomp is the current amplitude in the presence of the compound and Ireference is the current amplitude in the presence of GABA alone. This builds an activation concentration-response curve (CRC), where <0.2 represents no PAM activity and >0.2 represents PAM activity. If a “bell-shape curve” is observed at the higher concentrations, showing a reduction in activity in comparison to previous concentrations, then to allow for a more accurate curve fit, these concentrations are removed from the graphs where necessary and noted in the results table.

GABAA α4β3δ = GABAA α4β3δ (Homo sapiens, UniProt P28472+P48169); assay: as above; assay type: cell-based; details: for Emax: read-out: GABAA α4β3δ Maximum Potentiation; for selectivity for GABAA receptor containing the delta (δ) subunit compared to a GABAA receptor without it: α4β3δ vs α1β2γ2, in words
Description: as §1, §2

Plasma stability assay = assay type: in vitro ADME; details: human plasma, 37° C., read-out: Human plasma t1/2
Description: (§3) 3 μM test compound was incubated in Human or Mouse plasma (BioIVT) at 37° C. with aliquots (100 μL) removed at 0, 15, 30, 60, 120, and 240 minutes. Enzymatic activity was quenched at each time point with the addition of 200 μL of acetonitrile containing 2 μM internal standard (d5-7-ethoxy coumarin), immediately vortexed and centrifuged at 15,000 rpm for 25 min at 4° C. Supernatants were transferred to autosampler vials for LC-MS/MS analysis. LC-MS/MS analysis was performed using Agilent Infinity II 1260 HPLC coupled to a G6460C QQQ MS. Half-lives were determined by plotting ln of % test compound remaining versus time and performing linear regression to determine the slope. Slope=−k and t½=0.693/k for first order kinetics.

[1] = Microsomal stability assay; assay type: in vitro ADME; details: Human Liver Microsomes, 37° C., unit in cell hr (head: min), read-out: HLM t1/2
Description: as §3, with “Liver Microsomes (Xenotech)” for “or Mouse plasma (BioIVT)”, “[…])” for “μL)”, “0, 5, 10,” for “0,”, “15,” for “15, 30, 60, 120,”, “30” for “240”

Aqueous solubility = details: water
[2] = Aqueous stability assay in PBS (DPBS), HPLC; assay type: physicochemical; details: 1 mg/mL, room temperature, parent remaining at 2 hr, read-out: PBS (% REM at 2 hr)
Description: Aqueous stability experiments were performed on an Agilent 1100 HPLC equipped with an Agilent 1200 autosampler. HPLC grade solvents were exclusively used during analysis, with acetonitrile being purchased from Sigma Aldrich, and water and formic acid provided by Fisher Scientific. Sample solutions were prepared in 2.0 mL large opening RAM™ vials from Chemglass using DPBS as the aqueous medium.
Tested compounds were dissolved in DPBS at a standard concentration of 1 mg/mL. All mixtures were then sonicated for 5 min or stirred until complete dissolution was achieved. Any precipitate observed in sample solutions was filtered with a PTFE syringe filter prior to analysis. Immediately after sample preparation, injection by the HPLC autosampler was performed, which was recorded as the initial time point (t=0 min). Samples were then kept in the autosampler at room temperature and injected at designated intervals without additional filtration or sample modification. Next, the area of the parent peak in each chromatogram was determined by automated integration in the Agilent ChemStation software. Pseudo first-order half-lives were then ascertained by calculating the percent of the parent compound remaining after each time point, Plots of time (x-axis) vs. the natural logarithm of percent parent remaining (y-axis) were subsequently constructed to determine the slope. Finally, the aqueous stability was evaluated using the following equation: […]
The HPLC conditions were as follows: injection volume, 1 μL; column temperature: 40° C.; detector: 254 nm; stationary phase: Zorbax Eclipse XDB-C18 (4.6×150 mm, 5 μm); flow rate: 1 mL/min; mobile phase: 80-95% acetonitrile in H2O (0.1% formic acid).

Sequence of GABAA α1β2γ2 (P14867 28-456): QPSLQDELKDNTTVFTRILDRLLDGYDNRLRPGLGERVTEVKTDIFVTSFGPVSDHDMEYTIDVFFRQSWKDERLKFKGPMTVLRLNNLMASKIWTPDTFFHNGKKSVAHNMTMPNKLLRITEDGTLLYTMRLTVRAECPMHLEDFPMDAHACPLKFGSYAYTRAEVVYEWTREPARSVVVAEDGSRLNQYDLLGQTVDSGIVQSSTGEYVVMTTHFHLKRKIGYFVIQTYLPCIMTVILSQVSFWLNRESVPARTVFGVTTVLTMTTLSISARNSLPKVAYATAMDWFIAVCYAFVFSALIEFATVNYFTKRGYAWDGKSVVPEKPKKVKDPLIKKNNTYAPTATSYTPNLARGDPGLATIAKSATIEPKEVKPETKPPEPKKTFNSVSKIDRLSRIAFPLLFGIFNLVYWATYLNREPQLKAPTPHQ
Sequence of GABAA α1β2γ2 (P47870 25-512 limits assumed): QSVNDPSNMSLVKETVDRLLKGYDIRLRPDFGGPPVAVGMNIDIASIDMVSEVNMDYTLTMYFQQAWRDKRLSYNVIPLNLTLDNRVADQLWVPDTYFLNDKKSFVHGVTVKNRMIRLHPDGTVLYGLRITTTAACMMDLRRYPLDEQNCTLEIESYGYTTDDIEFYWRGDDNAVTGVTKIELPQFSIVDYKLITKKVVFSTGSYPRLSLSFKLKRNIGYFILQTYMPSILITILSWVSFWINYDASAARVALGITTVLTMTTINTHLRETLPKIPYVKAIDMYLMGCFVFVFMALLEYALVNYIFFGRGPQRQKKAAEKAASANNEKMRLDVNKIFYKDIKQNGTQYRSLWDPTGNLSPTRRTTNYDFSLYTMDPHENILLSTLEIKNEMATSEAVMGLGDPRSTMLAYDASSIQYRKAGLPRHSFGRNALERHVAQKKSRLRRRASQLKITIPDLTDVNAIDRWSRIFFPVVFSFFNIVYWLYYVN
Sequence of GABAA α1β2γ2 (P18507 40-475 partner): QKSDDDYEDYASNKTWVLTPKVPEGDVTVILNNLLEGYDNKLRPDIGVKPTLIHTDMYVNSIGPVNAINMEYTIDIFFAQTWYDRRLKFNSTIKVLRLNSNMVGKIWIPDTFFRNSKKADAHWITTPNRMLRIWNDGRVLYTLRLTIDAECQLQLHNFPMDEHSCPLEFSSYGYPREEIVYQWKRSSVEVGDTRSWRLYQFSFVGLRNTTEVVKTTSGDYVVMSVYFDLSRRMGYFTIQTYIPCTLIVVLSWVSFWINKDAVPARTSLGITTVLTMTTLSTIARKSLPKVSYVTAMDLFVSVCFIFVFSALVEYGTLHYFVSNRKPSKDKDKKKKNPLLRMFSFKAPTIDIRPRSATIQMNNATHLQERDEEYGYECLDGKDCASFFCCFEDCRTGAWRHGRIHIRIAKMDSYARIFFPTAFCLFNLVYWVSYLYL
Sequence of GABAA α4β3δ (P48169 36-554): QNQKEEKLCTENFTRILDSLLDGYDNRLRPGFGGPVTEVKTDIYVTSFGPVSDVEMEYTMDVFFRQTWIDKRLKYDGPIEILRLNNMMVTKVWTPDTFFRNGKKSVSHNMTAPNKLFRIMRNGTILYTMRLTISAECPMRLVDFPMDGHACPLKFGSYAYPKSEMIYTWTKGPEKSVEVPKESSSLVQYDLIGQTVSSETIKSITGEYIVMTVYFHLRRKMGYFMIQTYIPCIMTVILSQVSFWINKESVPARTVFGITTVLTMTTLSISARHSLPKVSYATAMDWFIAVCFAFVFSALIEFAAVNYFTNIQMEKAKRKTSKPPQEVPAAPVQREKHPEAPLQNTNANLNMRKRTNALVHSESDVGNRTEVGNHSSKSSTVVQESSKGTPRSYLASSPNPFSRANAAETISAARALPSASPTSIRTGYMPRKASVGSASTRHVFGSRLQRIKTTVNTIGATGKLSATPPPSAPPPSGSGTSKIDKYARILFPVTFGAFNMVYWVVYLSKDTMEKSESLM
Sequence of GABAA α4β3δ (P28472 26-473): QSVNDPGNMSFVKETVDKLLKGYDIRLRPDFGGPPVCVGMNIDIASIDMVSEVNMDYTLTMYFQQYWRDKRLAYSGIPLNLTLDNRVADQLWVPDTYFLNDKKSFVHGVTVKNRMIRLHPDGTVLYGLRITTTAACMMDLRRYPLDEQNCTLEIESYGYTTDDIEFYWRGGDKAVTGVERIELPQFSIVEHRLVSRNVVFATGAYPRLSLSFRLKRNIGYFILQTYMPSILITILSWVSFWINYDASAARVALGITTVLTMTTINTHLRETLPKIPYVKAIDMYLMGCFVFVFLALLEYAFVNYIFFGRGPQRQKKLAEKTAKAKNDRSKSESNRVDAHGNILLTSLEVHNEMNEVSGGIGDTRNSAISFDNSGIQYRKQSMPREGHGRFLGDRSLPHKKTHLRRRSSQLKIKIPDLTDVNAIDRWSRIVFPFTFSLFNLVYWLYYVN
Sequence of GABAA α4β3δ (O14764 17-452 partner limits assumed): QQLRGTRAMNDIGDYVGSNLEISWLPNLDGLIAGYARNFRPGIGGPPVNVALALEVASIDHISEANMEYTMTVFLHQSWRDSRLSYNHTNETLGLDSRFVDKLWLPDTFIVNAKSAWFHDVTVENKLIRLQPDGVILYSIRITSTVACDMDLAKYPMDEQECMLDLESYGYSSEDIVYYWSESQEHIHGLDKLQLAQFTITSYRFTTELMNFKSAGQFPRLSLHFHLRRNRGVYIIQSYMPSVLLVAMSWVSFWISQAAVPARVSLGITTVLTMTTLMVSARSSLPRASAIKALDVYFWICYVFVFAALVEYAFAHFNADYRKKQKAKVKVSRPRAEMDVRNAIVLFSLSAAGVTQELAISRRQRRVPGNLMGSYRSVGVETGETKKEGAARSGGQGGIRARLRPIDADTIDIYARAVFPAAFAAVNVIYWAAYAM

Row | Structure (SMILES) | EC50 (GABAA α1β2γ2) | EC50 (GABAA α4β3δ) | half-life at 3 µM (Plasma stability assay) | solubility (Aqueous solubility) | remaining at 2 h [2] | other results
1 | C/C(=N\O)[C@H]1CC[C@H]2[C@@H]3CC[C@H]4C[C@](C)(O)CC[C@]4(C)[C@H]3CC[C@]12C [GP-GAN- 001 (10), (E)-1-((3R,8R,9S,10S,13S,14S,17S)-3-hydroxy-3,10,13-trimethylhexadecahydro-1H-cyclopenta[a]phenanthren-17-yl)ethan-1-one oxime] | 1620 nM | 1000 nM |  |  |  | Emax (GABAA α1β2γ2): 133%; Emax (GABAA α4β3δ): 533%; half-life at 3 µM (Plasma stability assay; unit in cell hr (head: min)): > 240 min; half-life at 3 µM [1]: > 120 min
2 | C/C(=N\O)[C@H]1CC[C@H]2[C@@H]3CCC4C[C@](C)(O)CC[C@]4(C)[C@H]3CC[C@]12C (stereo partly drawn) [compound 10] |  |  |  |  |  | selectivity for GABAA receptor containing the delta (δ) subunit compared to a GABAA receptor without it (GABAA α4β3δ): selectively potentiate
3 | CNCCN(C(=O)O/N=C(\C)[C@H]1CC[C@H]2[C@@H]3CCC4C[C@](C)(O)CC[C@]4(C)[C@H]3CC[C@]12C)C1CCC1.Cl (stereo partly drawn) [GP-GAN- 005 (20c), (E)-1-((3R,8R,9S,10S,13S,14S,17S)-3-hydroxy-3,10,13-trimethylhexadecahydro-1H-cyclopenta[a]phenanthren-17-yl)ethan-1-one O-(cyclobutyl(2-(methylamino)ethyl)carbamoyl) oxime hydrochloride] |  |  | 39 min | > 750 µM | 43% | 
4 | C/C(=N\O)[C@H]1CC[C@H]2[C@@H]3CC[C@@H]4C[C@](C)(O)CC[C@@H]4[C@H]3CC[C@]12C [LEH- NEURO- 007 (30), (E)-1-((3R,5R,8R,9R,10S,13S,14S,17S)-3-hydroxy-3,13-dimethylhexadecahydro-1H-cyclopenta[a]phenanthren-17-yl)ethan-1-one oxime] | 692 nM | 383 nM |  |  |  | Emax (GABAA α1β2γ2): 121%; Emax (GABAA α4β3δ): 510%; selectivity for GABAA receptor containing the delta (δ) subunit compared to a GABAA receptor without it (GABAA α4β3δ): selectively potentiate; half-life at 3 µM (Plasma stability assay; unit in cell hr (head: min)): > 240 min
5 | C/C(=N\O)[C@@]1(F)CC[C@H]2[C@@H]3CC[C@H]4C[C@](C)(O)CC[C@]4(C)[C@H]3CC[C@@]21C [GP-GAN- 006 (15), (E)-1-((3R,8R,9S,10S,13S,14S,17R)-17-fluoro-3-hydroxy-3,10,13-trimethylhexadecahydro-1H-cyclopenta[a]phenanthren-17-yl)ethan-1-one oxime] |  |  | 3 min |  | 61% | 
6 | C/C(=N\OCOP(=O)(O)O)[C@H]1CC[C@H]2[C@@H]3CCC4C[C@](C)(O)CC[C@]4(C)[C@H]3CC[C@]12C (stereo partly drawn) [GP-GAN- 007 (22), 1,3-Dihydroxy-2-(hydroxymethyl)propan-2-aminium ((((E)-1-((3R,8R,9S,10S,13S,14S,17S)-3-hydroxy-3,10,13-trimethylhexadecahydro-1H-cyclopenta[a]phenanthren-17-yl)ethylidene)amino)oxy)methyl hydrogen phosphate] |  |  |  | > 1000 µM |  | 
7 | CNCCN(C(=O)O/N=C(\C)[C@H]1CC[C@H]2[C@@H]3CCC4C[C@](C)(O)CC[C@]4(C)[C@H]3CC[C@]12C)C(C)C.Cl (stereo partly drawn) [GP-GAN- 004 (20d), (E)-1-((3R,8R,9S,10S,13S,14S,17S)-3-hydroxy-3,10,13-trimethylhexadecahydro-1H-cyclopenta[a]phenanthren-17-yl)ethan-1-one O-(isopropyl(2-(methylamino)ethyl)carbamoyl) oxime hydrochloride] |  |  | 28 min | > 750 µM | 52% | 
8 | C/C(=N\OC(=O)N(C)C[C@@H]1CCCN1)[C@H]1CC[C@H]2[C@@H]3CCC4C[C@](C)(O)CC[C@]4(C)[C@H]3CC[C@]12C.Cl (stereo partly drawn) [GP-GAN- 003 (20b), (E)-1-((3R,8R,9S,10S,13S,14S,17S)-3-hydroxy-3,10,13-trimethylhexadecahydro-1H-cyclopenta[a]phenanthren-17-yl)ethan-1-one O-(methyl(((S)-pyrrolidin-2-yl)methyl)carbamoyl) oxime hydrochloride] |  |  | 6 min | > 750 µM | 10% | 
9 | CNCCN(C)C(=O)O/N=C(\C)[C@H]1CC[C@H]2[C@@H]3CCC4C[C@](C)(O)CC[C@]4(C)[C@H]3CC[C@]12C.Cl (stereo partly drawn) [GP-GAN- 002 (20a), (E)-1-((3R,8R,9S,10S,13S,14S,17S)-3-hydroxy-3,10,13-trimethylhexadecahydro-1H-cyclopenta[a]phenanthren-17-yl)ethan-1-one O-(methyl(2-(methylamino)ethyl)carbamoyl) oxime hydrochloride] |  |  | 55 min | > 750 µM | 66% | 
10 | CC(=O)[C@H]1CC[C@H]2[C@@H]3CC[C@H]4C[C@](C)(O)CC[C@]4(C)[C@H]3CC[C@]12C [Ganaxalone, Ganaxolone, reference compound] | 540 nM | 879 nM |  |  |  | 
